From patent publication US20250179077A1, “QUINAZOLINE COMPOUNDS AND USES THEREOF AS INHIBITORS OF MUTANT KRAS PROTEINS” (AMGEN INC., priority 2022, published 2025) come the findings set out here.

Like-named read-outs stand apart in the source and are kept apart here.

Broadly, the IC50 is the midpoint of a concentration-inhibition curve.

The test system of experiment [1] is Phosphorylation of ERK1/2 in AsPC-1 cells. Description: Phospho-ERK1/2 MSD Assay. The class given is cell-based. On the procedure:
AsPC-1 (ATCC® CRL-1682™) cells were cultured in RPMI 1640 Medium (ThermoFisher Scientific 11875093) containing 10% fetal bovine serum (ThermoFisher Scientific 16000044) and Ix penicillin-streptomycin-glutamine (ThermoFisher Scientific 10378016). Sixteen hours prior to compound treatment, AsPC-1 cells were seeded in 96-well cell culture plates at a density of 25,000 cells/well and incubated at 37° C., 5% CO2. A compound dose-response titration was diluted in growth media, added to appropriate wells of a cell culture plate, and then incubated at 37° C., 5% CO2 for 2 h. Following compound treatment, cells were washed with ice-cold Dulbecco's phosphate-buffered saline, no Ca^2+ or Mg^2+ (ThermoFisher Scientific 14190144), and then lysed in RIPA buffer (50 mM Tris-HCl pH 7.5, 1% Igepal, 0.5% sodium deoxycholate, 150 mM NaCl, and 0.5% sodium dodecyl sulfate) containing protease inhibitors (Roche 4693132001) and phosphatase inhibitors (Roche 4906837001). Phosphorylation of ERK1/2 in compound-treated lysates was assayed using Phospho-ERK1/2 Whole Cell Lysate kits (Meso Scale Discovery K151DWD) according to the manufacturer's protocol. Assay plates were read on a Meso Scale Discovery Sector Imager 6000, and data were analyzed using a 4-parameter logistic model to calculate IC50 values.

For experiment [2], the target named is GDP-bound KRAS protein (aa 1-169), containing both G12D and C118A amino acid substitutions (Homo sapiens, UniProt P01116, C118A/G12D). Description: KRAS G12D Coupled Nucleotide Exchange Assay. It counts as biochemical. Here is the method:
KRAS G12D Coupled Nucleotide Exchange Assay
Following compound pre-incubation, purified SOS protein (aa 564-1049) and GTP (Roche 10106399001) were added to the assay wells and incubated for an additional 30 min. […] The assay plates were then read on a PerkinElmer EnVision Multilabel Reader, using AlphaScreen® technology, and data were analyzed using a 4-parameter logistic model to calculate IC50 values.

The target in experiment [3] is His-tagged KRAS G12D protein (Homo sapiens, UniProt P01116, G12D). Description: KRAS G12D TR-FRET Assay. It counts as binding. Here is the method: KRAS G12D TR-FRET Assay Compounds of interest were prepared in a dose-response titration in DMSO, and 80 nL were added via Labcyte Echo to each well of a 384-well plate (Perkin Elmer 6008280). The His-tagged KRAS G12D protein (Amgen) was diluted to 20 nM in Assay Buffer (20 mM HEPES, pH 7.4, 10 mM MgCl2, 50 mM NaCl, 0.1% BSA, 0.01% Tween-20, 10 μM GDP) and 2 uL was added to the appropriate wells of the 384-well plate. The plate was incubated for 30 minutes at room temperature. Biotinylated KRPep-2d substrate (Amgen) was diluted to 20 nM in Assay Buffer and 2 μL was added to all wells and incubated for 1 hour at room temperature. Detection Reagent (0.4 nM LANCE Eu-W1024 Anti-6×-His (Perkin Elmer AD0401), 5 nM streptavidin-d2 (Cisbio 610SADLA)) was prepared in Assay Buffer, then 4 μL was added to the plate and incubated for 1 hour at room temperature. Plates were read using PerkinElmer EnVision (ex: 320 nm, em1: 665 nm, em2: 615 nm) and em1/em2 data was used to generate curve fits using a 4-parameter logistic model to calculate IC50 values.
A general note: Time-resolved FRET reads energy transfer from a long-lived donor to a nearby acceptor.

[4] abbreviates: Homo sapiens, ASPC1, 2 h, read-out: 2 h p-ERK (AsPC-1 cells), IC50, AsPC-1 cells, 2 h compound treatment.

Chain of GDP-bound KRAS protein (aa 1-169), containing both G12D and C118A amino acid substitutions (P01116 1-169 isoform P01116-2 G12D/C118A): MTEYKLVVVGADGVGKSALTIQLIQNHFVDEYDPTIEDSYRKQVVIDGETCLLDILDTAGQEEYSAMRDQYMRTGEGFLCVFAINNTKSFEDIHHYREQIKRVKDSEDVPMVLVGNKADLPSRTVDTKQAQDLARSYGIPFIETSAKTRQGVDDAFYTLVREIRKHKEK
Chain of His-tagged KRAS G12D protein (P01116 1-188 isoform P01116-2 G12D): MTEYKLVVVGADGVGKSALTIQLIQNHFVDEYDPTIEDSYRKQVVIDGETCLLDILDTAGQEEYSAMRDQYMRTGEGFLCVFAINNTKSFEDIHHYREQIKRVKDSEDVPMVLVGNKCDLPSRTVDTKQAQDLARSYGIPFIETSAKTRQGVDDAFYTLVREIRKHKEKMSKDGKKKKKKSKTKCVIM

As for `Oc1cc(-c2c(F)cc3c(N4CCCOCC4)nc(OC[C@@]45CCCN4C[C@H](F)C5)nc3c2F)c2ccccc2c1` [Example 10, 4-(6,8-Difluoro-2-(((2R,7aS)-2-fluorotetrahydro-1H-pyrrolizin-7a(5H)-yl)methoxy)-4-(1,4-oxazepan-4-yl)quinazolin-7-yl)naphthalen-2-ol], the IC50 was found to be 1040 nM in experiment [1] (setting [4]), 15 nM in experiment [2] and 14 nM in experiment [3].
For `CCc1c(F)ccc2cc(N)cc(-c3c(F)cc4c(N5CCCC6(CNC(=O)O6)C5)nc(OC[C@@]56CCCN5C[C@H](F)C6)nc4c3F)c12` (stereo partly drawn) [Example 73, 7-(7-(3-Amino-8-ehtyl-7-fluoronaphthalen-1-yl)-6,8-difluoro-2-(((2R,7aS)-2-fluorotetrahydro-1H-pyrrolizin-7a(5H)-yl)methoxy)quinazolin-4-yl)-1-oxa-3,7-diazaspiro[4.5]decan-2-one], the IC50 in experiment [1] (setting [4]) worked out at 90 nM; in experiment [2], 1 nM; in experiment [3] it was 2 nM.
In the same order, the values of `Oc1cc(-c2c(F)cc3c(N4CCC[C@]5(CCO5)C4)nc(OC[C@@]45CCCN4C[C@H](F)C5)nc3c2F)c2c(F)c(F)ccc2c1` [Example 79, 4-(6,8-Difluoro-2-(((2R,7aS)-2-fluorotetrahydro-1H-pyrrolizin-7a(5H)-yl)methoxy)-4-((S)-1-oxa-6-azaspiro[3.5]nonan-6-yl)quinazolin-7-yl)-5,6-difluoronaphthalen-2-ol] are 33 nM, 5 nM and 9 nM.
For `C[C@@]1(O)CCCN(c2nc(OC[C@@]34CCCN3C[C@H](F)C4)nc3c(F)c(-c4cc(N)cc(Cl)c4C(F)(F)F)ccc23)C1` [Example 60, (R)-1-(7-(5-Amino-3-chloro-2-(trifluoromethyl)phenyl)-8-fluoro-2-(((2R,7aS)-2-fluorotetrahydro-1H-pyrrolizin-7a(5H)-yl)methoxy)quinazolin-4-yl)-3-methylpiperidin-3-ol], in that order: 1170 nM, 12 nM and 15 nM.
For the compound `CCc1c(F)ccc2cc(O)cc(-c3ccc4c(N5CCCC6(CC(=O)N6)C5)nc(OC[C@@]56CCCN5C[C@H](F)C6)nc4c3F)c12` (stereo partly drawn) [Example 51, 6-(7-(8-Ethyl-7-fluoro-3-hydroxynaphthalen-1-yl)-8-fluoro-2-(((2R,7aS)-2-fluorotetrahydro-1H-pyrrolizin-7a(5H)-yl)methoxy)quinazolin-4-yl)-1,6-diazaspiro[3.5]nonan-2-one], the IC50 was found to be 47 nM in experiment [1] (setting [4]), 4 nM in experiment [2] and 3 nM in experiment [3].
In the same order, the values of `CCc1c(F)ccc2cc(O)cc(-c3ccc4c(N5CCC[C@]6(C5)C[C@@H](O)C6)nc(OC[C@@]56CCCN5C[C@H](F)C6)nc4c3F)c12` [Example 87, (2S,4s)-6-(7-(8-Ethyl-7-fluoro-3-hydroxynaphthalen-1-yl)-6,8-difluoro-2-(((2R,7a.S)-2-fluorotetrahydro-1H-pyrrolizin-7a(5H)-yl)methoxy)quinazolin-4-yl)-6-azaspiro[3.5]nonan-2-ol] are 55 nM, 3 nM and 5 nM.
As to `C#Cc1c(F)ccc2cc(O)cc(-c3ccc4c(N5CCC[C@@](C)(O)C5)nc(OC[C@@]56CCCN5C[C@H](F)C6)nc4c3F)c12` [Example 47, (R)-1-(7-(8-Ethynyl-7-fluoro-3-hydroxynaphthalen-1-yl)-8-fluoro-2-(((2R,7aS)-2-fluorotetrahydro-1H-pyrrolizin-7a(5H)-yl)methoxy)quinazolin-4-yl)-3-methylpiperidin-3-ol], the IC50 in experiment [1] (setting [4]) worked out at 21 nM; in experiment [2], 4 nM; in experiment [3] it was 4 nM.
Regarding `O=C1NC[C@]2(CCCN(c3nc(OC[C@@]45CCCN4C[C@H](F)C5)nc4c(F)c(-c5cc(O)cc(Cl)c5C5CC5)ccc34)C2)O1` [Example 84, (S)-7-(7-(3-Chloro-2-cyclopropyl-5-hydroxyphenyl)-8-fluoro-2-(((2R,7aS)-2-fluorotetrahydro-1H-pyrrolizin-7a(5H)-yl)methoxy)quinazolin-4-yl)-1-oxa-3,7-diazaspiro[4.5]decan-2-one], the IC50 in experiment [1] (setting [4]) came out at 72 nM; in experiment [2], 2 nM; in experiment [3], 5 nM.
For `CCc1cccc2cc(O)cc(-c3c(C#N)cc4c(N5CCCOCC5)nc(OC[C@@]56CCCN5C[C@H](F)C6)nc4c3F)c12` [Example 45, 7-(8-Ethyl-3-hydroxynaphthalen-1-yl)-8-fluoro-2-(((2R,7aS)-2-fluorotetrahydro-1H-pyrrolizin-7a(5H)-yl)methoxy)-4-(1,4-oxazepan-4-yl)quinazoline-6-carbonitrile], in that order: 525 nM, 7 nM and 12 nM.
Take `CCc1c(F)ccc2cc(O)cc(-c3c(O)cc4c(N5CCCOCC5)nc(OC[C@@]56CCCN5C[C@H](F)C6)nc4c3F)c12` [Example 26, 7-(8-Ethyl-7-fluoro-3-hydroxynaphthalen-1-yl)-8-fluoro-2-(((2R,7aS)-2-fluorotetrahydro-1H-pyrrolizin-7a(5H)-yl)methoxy)-4-(1,4-oxazepan-4-yl)quinazolin-6-ol]: the values for the IC50 in experiment [1] (setting [4]), in experiment [2] and in experiment [3] were 270 nM, 4 nM and 4 nM, respectively.
With `CCc1c(F)ccc2cc(O)cc(-c3c(F)cc4c(N5CCCC6(CNC(=O)O6)C5)nc(OC[C@@]56CCCN5C[C@H](F)C6)nc4c3F)c12` (single isomer, unassigned) [Example 56], the half-inhibitory concentration (IC50) in experiment [1] (read-out: 2 h p-ERK (AsPC-1 cells), IC50, AsPC-1 cells, 2 h compound treatment) stood at 507 nM; in experiment [2] it was 8 nM; in experiment [3], 24 nM.
Consider `CCc1c(F)ccc2cc(O)cc(-c3c(Cl)cc4c(N5CCC[C@@](C)(O)C5)nc(OC[C@@]56CCCN5C[C@H](F)C6)nc4c3F)c12` [Example 25, (3R)-1-(6-Chloro-7-(8-ethyl-7-fluoro-3-hydroxynaphthalen-1-yl)-8-fluoro-2-(((2R,7aS)-2-fluorotetrahydro-1H-pyrrolizin-7a(5H)-yl)methoxy)quinazolin-4-yl)-3-methylpiperidin-3-ol], for which the values for the IC50 in experiment [1] (setting [4]), in experiment [2] and in experiment [3] were 146 nM, 5 nM and 4 nM, respectively.
For `CCc1c(F)ccc2cc(O)cc(-c3ccc4c(N5CCC[C@]6(COC(=O)O6)C5)nc(OC[C@@]56CCCN5C[C@H](F)C6)nc4c3F)c12` (single isomer, unassigned) [Example 86], in that order: 52 nM, 4 nM and 6 nM.
For `CCc1c(F)ccc2cc(O)cc(-c3ccc4c(N5CCC[C@]6(CNC(=O)O6)C5)nc(OC[C@@]56CCCN5C[C@H](F)C6)nc4c3F)c12` (single isomer, unassigned) [Example 88], in that order: 13 nM, 6 nM and 15 nM.
For `C/C=C\c1c(Cl)cc2[nH]ncc2c1-c1ccc2c(N3CCC[C@@](C)(O)C3)nc(OCC3(CN(C)C)CC3)nc2c1F` [Example 115, (3R)-1-(7-(6-Chloro-5-((Z)-prop-1-en-1-yl)-1H-indazol-4-yl)-2-((1-((dimethylamino)methyl)cyclopropyl)methoxy)-8-fluoroquinazolin-4-yl)-3-methylpiperidin-3-ol], in that order: 247 nM, 9 nM and 8 nM.
Turning to `Oc1cc(-c2ccc3c(N4CCCOCC4)nc(OC[C@@]45CCCN4C[C@H](F)C5)nc3c2F)c2ccccc2c1` [Example 42, 4-(8-Fluoro-2-(((2R,7aS)-2-fluorotetrahydro-1H-pyrrolizin-7a(5H)-yl)methoxy)-4-(1,4-oxazepan-4-yl)quinazolin-7-yl)naphthalen-2-ol], the IC50 in experiment [1] (setting [4]) turned out to be 1160 nM; in experiment [2], 14 nM; in experiment [3] it was 25 nM.
